Reference: patent US9682995B2, “Amino-substituted isothiazoles” (BAYER PHARMA AKTIENGESELLSCHAFT, priority 2013, dated 2017)

Experiments:
Assay in all cases: Kinase Profiling (KINOMEscan)
Format in all cases: binding
[1] = molecular target: 456 kinases (of these 395 non-mutant kinases) (Homo sapiens, UniProt P33981); details: TTK; 10 μM
[2] = molecular target: 456 kinases (of these 395 non-mutant kinases) (Homo sapiens, UniProt Q9H2K8); details: TAOK3; 10 μM
[3] = molecular target: 456 kinases (of these 395 non-mutant kinases) (Homo sapiens, UniProt P07949); details: RET; 10 μM
456 kinases (of these 395 non-mutant kinases) (Homo sapiens, UniProt P07949), sequence (P07949 29-1114 limits assumed, change not shown): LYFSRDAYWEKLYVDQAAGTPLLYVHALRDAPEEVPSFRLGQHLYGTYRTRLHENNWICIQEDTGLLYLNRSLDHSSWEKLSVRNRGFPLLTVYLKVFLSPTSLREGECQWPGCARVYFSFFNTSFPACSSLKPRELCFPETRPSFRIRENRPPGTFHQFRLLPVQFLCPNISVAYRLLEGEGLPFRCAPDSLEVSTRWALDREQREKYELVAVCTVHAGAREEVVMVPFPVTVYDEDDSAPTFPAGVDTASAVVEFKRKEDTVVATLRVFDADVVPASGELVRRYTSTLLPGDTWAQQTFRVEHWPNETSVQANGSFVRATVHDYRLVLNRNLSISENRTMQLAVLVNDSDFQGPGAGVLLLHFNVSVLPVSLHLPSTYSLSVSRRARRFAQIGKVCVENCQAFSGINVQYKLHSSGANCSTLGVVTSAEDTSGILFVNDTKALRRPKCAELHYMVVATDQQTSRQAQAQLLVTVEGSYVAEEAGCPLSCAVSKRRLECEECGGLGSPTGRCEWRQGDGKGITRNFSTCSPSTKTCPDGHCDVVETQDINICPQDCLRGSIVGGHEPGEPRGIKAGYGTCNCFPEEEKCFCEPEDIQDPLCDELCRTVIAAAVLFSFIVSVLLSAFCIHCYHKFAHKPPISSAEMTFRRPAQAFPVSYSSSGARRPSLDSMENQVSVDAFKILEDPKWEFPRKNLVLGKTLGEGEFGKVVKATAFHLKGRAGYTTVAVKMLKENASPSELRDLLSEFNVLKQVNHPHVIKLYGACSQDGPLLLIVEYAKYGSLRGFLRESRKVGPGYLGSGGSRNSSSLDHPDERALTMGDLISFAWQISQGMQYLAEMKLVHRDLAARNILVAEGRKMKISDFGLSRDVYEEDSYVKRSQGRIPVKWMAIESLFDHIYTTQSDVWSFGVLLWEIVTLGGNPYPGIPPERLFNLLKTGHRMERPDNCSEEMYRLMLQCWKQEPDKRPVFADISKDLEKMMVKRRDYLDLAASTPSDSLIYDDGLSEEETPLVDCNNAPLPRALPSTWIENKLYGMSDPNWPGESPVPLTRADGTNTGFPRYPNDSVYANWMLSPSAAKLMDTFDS

[4] = molecular target: 456 kinases (of these 395 non-mutant kinases) (Homo sapiens, UniProt Q9NWZ3); details: IRAK4; 10 μM
[5] = molecular target: 456 kinases (of these 395 non-mutant kinases) (Homo sapiens, UniProt O00750); details: PIK3C2B; 10 μM
[6] = molecular target: 456 kinases (of these 395 non-mutant kinases) (Homo sapiens, UniProt Q13555); details: CAMK2G; 10 μM
[7] = molecular target: 456 kinases (of these 395 non-mutant kinases) (Homo sapiens, UniProt Q8NE63); details: HIPK4; 10 μM
[8] = molecular target: 456 kinases (of these 395 non-mutant kinases) (Homo sapiens, UniProt P10721, A829P); details: KIT(A829P); 10 μM
456 kinases (of these 395 non-mutant kinases) (Homo sapiens, UniProt P10721, A829P), sequence (P10721 26-976 A829P limits assumed): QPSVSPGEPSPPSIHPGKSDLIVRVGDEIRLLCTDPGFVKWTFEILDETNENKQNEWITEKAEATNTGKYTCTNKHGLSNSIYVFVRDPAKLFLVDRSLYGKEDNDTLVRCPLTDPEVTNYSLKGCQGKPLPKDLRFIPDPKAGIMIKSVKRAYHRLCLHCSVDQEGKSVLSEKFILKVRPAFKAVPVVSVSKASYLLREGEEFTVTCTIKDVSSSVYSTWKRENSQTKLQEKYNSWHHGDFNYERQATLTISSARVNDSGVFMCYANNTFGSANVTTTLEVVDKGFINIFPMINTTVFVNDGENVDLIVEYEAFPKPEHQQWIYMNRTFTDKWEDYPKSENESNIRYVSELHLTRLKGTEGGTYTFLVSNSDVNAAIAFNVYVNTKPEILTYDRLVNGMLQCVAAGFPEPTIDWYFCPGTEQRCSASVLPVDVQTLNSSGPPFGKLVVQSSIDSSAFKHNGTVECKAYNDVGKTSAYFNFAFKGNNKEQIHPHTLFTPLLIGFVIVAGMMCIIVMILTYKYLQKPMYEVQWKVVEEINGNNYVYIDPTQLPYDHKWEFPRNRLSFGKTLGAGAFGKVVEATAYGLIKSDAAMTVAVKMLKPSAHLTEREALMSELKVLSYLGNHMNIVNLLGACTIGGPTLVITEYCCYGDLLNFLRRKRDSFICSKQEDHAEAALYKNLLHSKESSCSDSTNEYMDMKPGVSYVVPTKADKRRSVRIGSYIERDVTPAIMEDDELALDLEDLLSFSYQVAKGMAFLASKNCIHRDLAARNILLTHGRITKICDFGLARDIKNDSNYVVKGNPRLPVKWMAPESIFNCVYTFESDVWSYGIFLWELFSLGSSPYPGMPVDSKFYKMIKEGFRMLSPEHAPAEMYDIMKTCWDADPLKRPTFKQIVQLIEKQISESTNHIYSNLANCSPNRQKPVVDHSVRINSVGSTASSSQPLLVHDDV

[9] = molecular target: 456 kinases (of these 395 non-mutant kinases) (Homo sapiens, UniProt P45984); details: JNK2; 10 μM
[10] = molecular target: 456 kinases (of these 395 non-mutant kinases) (Homo sapiens, UniProt P49137); details: MAPKAPK2; 10 μM
[11] = molecular target: 456 kinases (of these 395 non-mutant kinases) (Homo sapiens, UniProt P20794); details: MAK; 10 μM
[12] = molecular target: 456 kinases (of these 395 non-mutant kinases) (Homo sapiens, UniProt P29323); details: EPHB2; 10 μM
[13] = molecular target: 456 kinases (of these 395 non-mutant kinases) (Homo sapiens, UniProt Q12851); details: MAP4K2; 10 μM
[14] = molecular target: 456 kinases (of these 395 non-mutant kinases) (Homo sapiens, UniProt Q15375); details: EPHA7; 10 μM
456 kinases (of these 395 non-mutant kinases) (Homo sapiens, UniProt Q15375), sequence (Q15375 28-998 limits assumed, change not shown): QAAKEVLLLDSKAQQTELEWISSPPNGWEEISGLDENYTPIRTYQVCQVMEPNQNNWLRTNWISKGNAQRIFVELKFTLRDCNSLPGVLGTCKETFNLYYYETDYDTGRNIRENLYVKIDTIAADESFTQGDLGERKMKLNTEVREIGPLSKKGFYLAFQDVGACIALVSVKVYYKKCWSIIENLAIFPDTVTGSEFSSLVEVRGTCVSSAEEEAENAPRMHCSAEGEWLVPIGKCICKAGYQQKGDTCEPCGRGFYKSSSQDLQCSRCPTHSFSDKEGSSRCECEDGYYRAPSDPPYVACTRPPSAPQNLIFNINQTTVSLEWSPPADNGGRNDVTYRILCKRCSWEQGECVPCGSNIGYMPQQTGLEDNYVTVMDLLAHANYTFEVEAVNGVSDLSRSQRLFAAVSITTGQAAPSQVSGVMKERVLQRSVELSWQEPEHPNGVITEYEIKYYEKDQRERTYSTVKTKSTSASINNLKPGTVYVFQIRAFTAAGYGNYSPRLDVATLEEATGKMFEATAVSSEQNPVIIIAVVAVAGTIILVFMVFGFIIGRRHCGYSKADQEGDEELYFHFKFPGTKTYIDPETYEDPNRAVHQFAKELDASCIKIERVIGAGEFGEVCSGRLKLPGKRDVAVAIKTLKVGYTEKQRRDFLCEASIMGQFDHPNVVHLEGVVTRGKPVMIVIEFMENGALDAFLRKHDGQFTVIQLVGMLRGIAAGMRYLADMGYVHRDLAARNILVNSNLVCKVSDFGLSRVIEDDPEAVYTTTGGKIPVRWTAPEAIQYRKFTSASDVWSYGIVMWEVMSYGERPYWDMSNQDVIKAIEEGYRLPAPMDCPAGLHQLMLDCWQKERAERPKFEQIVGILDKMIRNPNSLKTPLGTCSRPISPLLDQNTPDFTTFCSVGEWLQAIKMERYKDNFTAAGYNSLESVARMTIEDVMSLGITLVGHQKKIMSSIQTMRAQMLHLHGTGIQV

[15] = molecular target: 456 kinases (of these 395 non-mutant kinases) (Homo sapiens, UniProt P51451); details: BLK; 10 μM
456 kinases (of these 395 non-mutant kinases) (Homo sapiens, UniProt P51451), sequence (P51451 2-505 limits assumed, stated change not applied): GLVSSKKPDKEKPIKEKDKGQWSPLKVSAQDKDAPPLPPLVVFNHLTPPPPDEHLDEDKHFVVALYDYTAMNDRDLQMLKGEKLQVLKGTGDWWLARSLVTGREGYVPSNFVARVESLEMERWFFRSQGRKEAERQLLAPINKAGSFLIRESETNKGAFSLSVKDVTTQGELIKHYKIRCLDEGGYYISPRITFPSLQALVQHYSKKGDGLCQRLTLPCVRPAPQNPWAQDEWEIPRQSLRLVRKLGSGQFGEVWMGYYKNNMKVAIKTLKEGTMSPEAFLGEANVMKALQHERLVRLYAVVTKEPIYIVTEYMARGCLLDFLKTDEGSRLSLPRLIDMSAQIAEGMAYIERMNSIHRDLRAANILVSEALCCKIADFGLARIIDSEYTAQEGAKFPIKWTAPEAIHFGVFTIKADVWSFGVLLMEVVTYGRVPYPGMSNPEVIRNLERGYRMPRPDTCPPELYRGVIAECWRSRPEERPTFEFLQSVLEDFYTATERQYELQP

[16] = molecular target: 456 kinases (of these 395 non-mutant kinases) (Homo sapiens, UniProt P07949, M918T); details: RET(M918T); 10 μM
456 kinases (of these 395 non-mutant kinases) (Homo sapiens, UniProt P07949, M918T), sequence (P07949 29-1114 M918T limits assumed): as the sequence (P07949 29-1114 limits assumed, change not shown) above, with M890T counted along it

[17] = molecular target: 456 kinases (of these 395 non-mutant kinases) (Homo sapiens, UniProt Q9HBH9); details: MKNK2; 10 μM
[18] = molecular target: 456 kinases (of these 395 non-mutant kinases) (Homo sapiens, UniProt O14920); details: IKK-beta; 10 μM
[19] = molecular target: 456 kinases (of these 395 non-mutant kinases) (Homo sapiens, UniProt P54762); details: EPHB1; 10 μM
[20] = molecular target: 456 kinases (of these 395 non-mutant kinases) (Homo sapiens, UniProt Q9H3Y6); details: SRMS; 10 μM
[21] = molecular target: 456 kinases (of these 395 non-mutant kinases) (Homo sapiens, UniProt Q9BXA7); details: TSSK1B; 10 μM
[22] = molecular target: 456 kinases (of these 395 non-mutant kinases) (Homo sapiens, UniProt P48736); details: PIK3CG; 10 μM
[23] = molecular target: 456 kinases (of these 395 non-mutant kinases) (Homo sapiens, UniProt Q9UHD2); details: TBK1; 10 μM
[24] = molecular target: 456 kinases (of these 395 non-mutant kinases) (Homo sapiens, UniProt P36888, D835Y); details: FLT3(D835Y); 10 μM
[25] = molecular target: 456 kinases (of these 395 non-mutant kinases) (Homo sapiens, UniProt Q8NFD2); details: ANKK1; 10 μM
[26] = molecular target: 456 kinases (of these 395 non-mutant kinases) (Homo sapiens, UniProt P53355); details: DAPK1; 10 μM
[27] = molecular target: 456 kinases (of these 395 non-mutant kinases) (Homo sapiens, UniProt Q13882); details: BRK; 10 μM
[28] = molecular target: 456 kinases (of these 395 non-mutant kinases) (Homo sapiens, UniProt O94804); details: LOK; 10 μM
[29] = molecular target: 456 kinases (of these 395 non-mutant kinases) (Homo sapiens, UniProt P54753); details: EPHB3; 10 μM
[30] = molecular target: 456 kinases (of these 395 non-mutant kinases) (Homo sapiens, UniProt P00533); details: EGFR; 10 μM
456 kinases (of these 395 non-mutant kinases) (Homo sapiens, UniProt P00533), sequence (P00533 25-1210 limits assumed, change not shown): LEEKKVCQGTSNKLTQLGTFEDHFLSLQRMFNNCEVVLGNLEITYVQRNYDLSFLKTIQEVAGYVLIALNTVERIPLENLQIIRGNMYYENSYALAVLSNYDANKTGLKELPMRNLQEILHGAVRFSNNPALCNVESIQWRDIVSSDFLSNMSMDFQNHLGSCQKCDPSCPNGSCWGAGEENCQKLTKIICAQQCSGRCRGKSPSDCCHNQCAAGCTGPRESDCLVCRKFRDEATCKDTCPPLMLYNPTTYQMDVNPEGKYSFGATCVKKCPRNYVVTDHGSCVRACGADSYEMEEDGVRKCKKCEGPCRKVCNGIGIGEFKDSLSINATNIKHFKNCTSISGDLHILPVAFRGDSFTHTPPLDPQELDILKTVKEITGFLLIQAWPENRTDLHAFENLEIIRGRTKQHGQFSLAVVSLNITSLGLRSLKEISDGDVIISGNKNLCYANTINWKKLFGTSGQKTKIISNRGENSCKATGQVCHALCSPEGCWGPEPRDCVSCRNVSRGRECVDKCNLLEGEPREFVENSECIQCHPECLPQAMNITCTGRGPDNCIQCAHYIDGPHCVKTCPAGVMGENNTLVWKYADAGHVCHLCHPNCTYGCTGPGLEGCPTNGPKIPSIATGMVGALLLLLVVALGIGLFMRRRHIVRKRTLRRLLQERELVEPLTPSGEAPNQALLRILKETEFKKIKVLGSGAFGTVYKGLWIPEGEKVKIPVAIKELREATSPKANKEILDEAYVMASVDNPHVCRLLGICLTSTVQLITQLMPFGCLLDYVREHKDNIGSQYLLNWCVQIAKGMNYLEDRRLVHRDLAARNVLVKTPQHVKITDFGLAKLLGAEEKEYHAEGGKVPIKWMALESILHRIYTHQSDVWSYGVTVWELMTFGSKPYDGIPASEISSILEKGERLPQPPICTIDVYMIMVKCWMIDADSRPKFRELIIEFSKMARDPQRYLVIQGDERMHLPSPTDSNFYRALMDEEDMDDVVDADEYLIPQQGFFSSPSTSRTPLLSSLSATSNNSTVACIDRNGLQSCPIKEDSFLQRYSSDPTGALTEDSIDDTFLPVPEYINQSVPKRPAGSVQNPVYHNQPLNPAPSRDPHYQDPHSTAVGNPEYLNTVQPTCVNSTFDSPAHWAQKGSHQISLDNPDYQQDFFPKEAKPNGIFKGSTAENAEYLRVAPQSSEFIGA

[31] = molecular target: 456 kinases (of these 395 non-mutant kinases) (Homo sapiens, UniProt Q14004); details: CDC2L5; 10 μM
[32] = molecular target: 456 kinases (of these 395 non-mutant kinases) (Homo sapiens, UniProt Q16816); details: PHKG1; 10 μM

With `CCc1ccccc1NC(=O)c1c(C)nsc1Nc1cnc2cc(F)ccc2n1` [Example 20, N-(2-Ethylphenyl)-5-[(6-fluoroquinoxalin-2-yl)amino]-3-methyl-1,2-thiazole-4-carboxamide] as the compound, how does the “% Ctrl @ 10 μM” value [1] read?
The value was 72 % Ctrl.

What about the “% Ctrl @ 10 μM” value [2] of the same compound?
The value was 100 % Ctrl.

What about the “% Ctrl @ 10 μM” value [3] of the same compound?
Its value is 88 % Ctrl.

What about the “% Ctrl @ 10 μM” value [4] of the same compound?
Its value is 100 % Ctrl.

And the “% Ctrl @ 10 μM” value [5]?
Its value is 100 % Ctrl.

And the “% Ctrl @ 10 μM” value [6]?
Its value is 75 % Ctrl.

What about the “% Ctrl @ 10 μM” value [7] of the same compound?
The value was 97 % Ctrl.

And the “% Ctrl @ 10 μM” value [8]?
The value was 94 % Ctrl.

And the “% Ctrl @ 10 μM” value [9]?
The value was 100 % Ctrl.

What about the “% Ctrl @ 10 μM” value [10] of the same compound?
Its value is 89 % Ctrl.

And the “% Ctrl @ 10 μM” value [11]?
Its value is 100 % Ctrl.

And the “% Ctrl @ 10 μM” value [12]?
Its value is 77 % Ctrl.

What about the “% Ctrl @ 10 μM” value [13] of the same compound?
The value was 99 % Ctrl.

What about the “% Ctrl @ 10 μM” value [14] of the same compound?
The value was 100 % Ctrl.

What about the “% Ctrl @ 10 μM” value [15] of the same compound?
Its value is 100 % Ctrl.

And the “% Ctrl @ 10 μM” value [16]?
The value was 78 % Ctrl.

And the “% Ctrl @ 10 μM” value [17]?
Its value is 100 % Ctrl.

What about the “% Ctrl @ 10 μM” value [18] of the same compound?
The value was 90 % Ctrl.

And the “% Ctrl @ 10 μM” value [19]?
The value was 96 % Ctrl.

And the “% Ctrl @ 10 μM” value [20]?
The value was 100 % Ctrl.

What about the “% Ctrl @ 10 μM” value [21] of the same compound?
Its value is 100 % Ctrl.

What about the “% Ctrl @ 10 μM” value [22] of the same compound?
The value was 99 % Ctrl.

What about the “% Ctrl @ 10 μM” value [23] of the same compound?
Its value is 91 % Ctrl.

And the “% Ctrl @ 10 μM” value [24]?
The value was 100 % Ctrl.

What about the “% Ctrl @ 10 μM” value [25] of the same compound?
The value was 100 % Ctrl.

What about the “% Ctrl @ 10 μM” value [26] of the same compound?
The value was 88 % Ctrl.

And the “% Ctrl @ 10 μM” value [27]?
Its value is 55 % Ctrl.

What about the “% Ctrl @ 10 μM” value [28] of the same compound?
Its value is 100 % Ctrl.

What about the “% Ctrl @ 10 μM” value [29] of the same compound?
Its value is 82 % Ctrl.

And the “% Ctrl @ 10 μM” value [30]?
The value was 98 % Ctrl.

What about the “% Ctrl @ 10 μM” value [31] of the same compound?
The value was 100 % Ctrl.

And the “% Ctrl @ 10 μM” value [32]?
Its value is 70 % Ctrl.
